Tested on: B6 normal mice
Assay: Fluorescence spectrometry tissue distribution of Cy5.5-labelled substances
Type: in vivo
Details: 24 hours after administration, Cy5.5 label
Procedure: Next, the present inventors performed an experiment in B6 normal mice in order to observe the distribution in each tissue and organ according to the administration of a bispecific fusion protein according to an embodiment of the present invention. Cy5.5 was used as a fluorophore for tracking the distribution after administration of each substance. Buffer exchange was performed for each substance to be administered, MG12-1, MG12-4, and GLP-1Fc homodimer with boric acid buffer (pH 8.5), and with reference to the protocol of the Cy5.5 labeling kit (GE, #PA15605) were allowed to react with an appropriate amount of Cy5.5 overnight under refrigeration conditions. Unreacted Cy5.5 in the reaction-completed substance was removed through the PBS substitution process, and whether Cy5.5 was reacted well was confirmed through the final SDS-PAGE. Each administered substance was diluted with 10% DMSO/PBS to have the same fluorescence intensity using an ELISA plate reader capable of measuring fluorescence intensity before being administered.

Cy5.5 [reference compound]
0: Average fluorescence intensity, Brain | Average fluorescence intensity, Large intestine | Average fluorescence intensity, Small intestine
